Laboratory results: patent EP0233461B2, “4,5,6-Substituted-2-pyrimidinamines” (AMERICAN CYANAMID COMPANY, priority 1986, dated 1987)
Where a name gives a salt, the structure may show the parent alone. Read-outs that look alike come from different tables or passages of the source.

System: human basophils
Test: Inhibition of histamine release from immunologically stimulated human basophils
Format: cell-based
Details: concentration causing 50% inhibition of histamine release, by linear regression, active if IC50 ≦ 48 µM
Outline: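 Leukocytes from sedimented human blood, washed in Tris-A and resuspended in Tris-ACM, were challenged with anti-IgE or antigen, with or without compound, for 60 min at 37 °C. Released histamine was measured fluorometrically after OPT derivatization and expressed as percent of total (perchloric acid lysate), corrected for spontaneous release.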

[1] = trihydrochloride, read-out: IC50

| SMILES | IC50 (Homo sapiens, read-out: IC50) [nM] | also measured |
| --- | --- | --- |
| COc1cccc(Nc2nccc(-c3cccnc3)n2)c1 [N-(3-Methoxyphenyl)-4-(3-pyridinyl)-2-pyrimidinamine] | 300 | – |
| Nc1cccc(Nc2nccc(-c3ccncc3)n2)c1 [N-[4-(4-Pyridinyl)-2-pyrimidinyl]-1,3-benzenediamine] | 1000 | – |
| NS(=O)(=O)c1ccc(Nc2nccc(-c3ccccn3)n2)cc1 [4-[[4-(2-Pyridinyl)-2-pyrimidinyl]amino]-benzenesulfonamide] | 4500 | – |
| CCc1ccc(Nc2ncc(C)c(-c3ccncc3)n2)cc1 [N-(4-Ethylphenyl)-5-methyl-4-(4-pyridinyl)-2-pyrimidinamine] | < 48000 | – |
| CCc1ccc(Nc2nccc(-c3ccccn3)n2)cc1 [N-(4-Ethylphenyl)-4-(2-pyridinyl)-2-pyrimidinamine] | 2100 | – |
| c1ccc(Nc2nccc(-c3ccnc4ccccc34)n2)cc1 [N-Phenyl-4-(4-quinolinyl)-2-pyrimi-dinamine] | 3000 | – |
| Cc1ccc(Nc2nccc(-c3cccnc3)n2)cc1Cl [N-(3-Chloro-4-methylphenyl)-4-(3-pyridinyl)-2-pyrimidinamine] | 9300 | – |
| CCc1ccc(Nc2nccc(-c3cnccn3)n2)cc1 [N-(4-Ethylphenyl)-4-pyrazinyl-2-pyrimidinamine] | 2800 | – |
| Cc1cc(C)cc(Nc2nccc(-c3ccncc3)n2)c1 [N-(3,5-Dimethylphenyl)-4-(4-pyridinyl)-2-pyrimidinamine] | 4400 | – |
| CN(C)c1ccc(Nc2nccc(-c3ccncc3)n2)cc1 [N,N-Dimethyl-N'-[4-(4-pyridinyl)-2-pyrimidinyl]-1,4-benzenediamine, trihydrochloride] | – | IC50 [1]: 400 nM |
| Cc1cc(-c2ccnc(Nc3cccc(N(C)C)c3)n2)c(C)o1 [N'-[4-(2,5-Dimethyl-3-furanyl)-2-pyrimidinyl]-N,N-dimethyl-1,3-benzenediamine] | < 24000 | – |
| Nc1ccc(Nc2nccc(-c3ccncc3)n2)cc1 [N-[4-(4-Pyridinyl)-2-pyrimidinyl)-1,4-benzenediamine] | – | IC50 (read-out: IC50): 2400 nM |
| Cc1cc(-c2ccnc(Nc3ccccc3)n2)c(C)o1 [4-(2,5-Dimethyl-3-furanyl)-N-phenyl-2-pyrimidinamine] | 2000 | – |
| Fc1cccc(F)c1Nc1nccc(-c2ccncc2)n1 [N-(2,6-Difluorophenyl)-4-(4-pyridinyl)-2-pyrimidinamine] | 2900 | – |
| CC(NC=O)c1ccc(Nc2nccc(-c3cccnc3)n2)cc1 (centres unmarked) [N-[1-[4-[[4-(3-Pyridinyl)-2-pyrimidinyl]amino]phenyl]ethyl]formamide] | 400 | – |
| Cc1ccc(C)c(Nc2nccc(-c3ccncc3)n2)c1 [N-(2,5-Dimethylphenyl)-4-(4-pyridinyl)-2-pyrimidinamine] | 47100 | – |
| Oc1ccc(Nc2nccc(-c3cccnc3)n2)cc1 [4-[[4-(3-Pyridinyl)-2-pyrimidinyl]amino]phenol] | 5100 | – |
| CCc1ccc(Nc2nccc(-c3cc[n+]([O-])cc3)n2)cc1 [N-(4-Ethylphenyl)-4-(4-pyridinyl)-2-pyrimidinamine, pyridine-1-oxide] | 17700 | – |
| CCc1ccc(Nc2nccc(-c3ccncc3)n2)cc1 [N-(4-Ethylphenyl)-4-(4-pyridinyl)-2-pyrimidinamine] | 7700 | – |

| SMILES | IC50 (Homo sapiens, read-out: IC50) [nM] | also measured |
| --- | --- | --- |
| COC(=O)c1ccc(Nc2nccc(-c3ccncc3)n2)cc1 [4-[[4-(4-Pyridinyl)-2-pyrimidinyl]amino]benzoic acid, methyl ester] | 27500 | – |
| Cc1cnc(Nc2ccc(N(C)C)cc2)nc1-c1ccco1 [N'-[4-(2-Furanyl)-5-methyl-2-pyrimidinyl]-N,N-dimethyl-1,4-benzenediamine] | 6100 | – |
| c1ccc(Nc2nccc(-c3cccs3)n2)cc1 [N-Phenyl-4-(2-thienyl)-2-pyrimidinamine] | 31700 | – |
| Oc1ccc(Nc2nccc(-c3ccncc3)n2)cc1 [4-[[4-(4-Pyridinyl)-2-primidinyl]amino]phenol] | 3300 | – |
| NS(=O)(=O)c1cccc(Nc2nccc(-c3cccnc3)n2)c1 [3-[[4-(3-Pyridinyl)-2-pyrimidinyl]amino]benzenesulfonamide] | 200 | – |
| CCc1cccc(Nc2nccc(-c3ccccn3)n2)c1 [N-(3-Ethylphenyl)-4-(2-pyridinyl)-2-pyrimidinamine] | 1400 | – |
| FC(F)(F)c1cccc(Nc2nccc(-c3ccncc3)n2)c1 [4-(4-Pyridinyl)-N-[3-(trifluoromethyl)phenyl]-2-pyrimidinamine, sulfate] | – | IC50 (sulfate): < 48000 nM |
| c1ccc(Nc2nccc(-c3ccco3)n2)cc1 [4-(2-Furanyl)-N-phenyl-2-pyrimidinamine] | 48000 | – |
| COc1cccc(Nc2nccc(-c3cccs3)n2)c1 [N-(3-Methoxyphenyl)-4-(2-thienyl)-2-pyrimidinamine] | 900 | – |
| Cc1ccc(-c2ccnc(Nc3cccc(N(C)C)c3)n2)o1 [N,N-Dimethyl-N'-[4-(5-methyl-2-furanyl)-2-pyrimidinyl]-1,3-benzenediamine] | 1600 | – |
| CC(=O)Nc1cccc(Nc2nccc(-c3ccncc3)n2)c1 [N-[3-[[4-(4-Pyridinyl)-2-pyrimidinyl]amino]-phenyl]acetamide] | 2100 | – |
| CC(=O)c1cccc(Nc2nccc(-c3cccnc3)n2)c1 [1-[3-[[4-(3-Pyridinyl)-2-pyrimidinyl]amino]-phenyl]ethanone] | 4100 | – |
| Cc1ccc(-c2ccnc(Nc3cccc(N(C)C)c3)n2)s1 [N,N-Dimethyl-N'-[4-(5-methyl-2-thienyl)-2-pyrimidinyl]-1,3-benzenediamine] | 5700 | – |
| CC(=O)Nc1ccc(Nc2nccc(-c3ccco3)n2)cc1 [N-[4-[[4-(2-Furanyl)-2-pyrimidin-yl]amino]phenyl]acetamide] | 700 | – |
| Clc1cccc(Nc2nccc(-c3ccncc3)n2)c1 [N-(3-Chlorophenyl)-4-(4-pyridinyl)-2-pyrimidinamine] | 3100 | – |
| Cc1ccc(Nc2nccc(-c3ccncc3)n2)c(C)c1 [N-(2,4-Dimethylphenyl)-4-(4-pyridinyl)-2-pyrimidinamine] | 24000 | – |
| CCN(CC)CCOc1cccc(Nc2nccc(-c3cccnc3)n2)c1 [N-[3-[2-(Diethylamino)ethoxy]phenyl]-4-(3-pyridinyl)-2-pyrimidinamine] | 2800 | – |
| C=CCOc1ccc(Nc2nccc(-c3cccnc3)n2)cc1 [N-[4-(2-Propenyloxy)phenyl]-4-(3-pyridinyl)-2-pyrimidinamine] | 800 | – |
| CCOC(=O)COc1ccc(Nc2nccc(-c3ccncc3)n2)cc1 [[4-[[4-Pyridinyl)-2-pyrimidinyl]amino]phenoxy]acetic acid, ethyl ester] | 5800 | – |

| SMILES | IC50 (Homo sapiens, read-out: IC50) [nM] | also measured |
| --- | --- | --- |
| Fc1ccc(Nc2nccc(-c3ccncc3)n2)c(F)c1 [N-(2,4-Difluorophenyl)-4-(4-pyri-dinyl)-2-pyrimidinamine] | < 48000 | – |
| CN1CCN(c2ccc(Nc3nccc(-c4ccco4)n3)cc2)CC1 [4-(2-Furanyl)-N-[4-(4-methyl-1-piperazinyl)phenyl]-2-pyrimidin-amine] | 1800 | – |
| Cc1cc(C)cc(Nc2nccc(-c3ccccn3)n2)c1 [N-(3,5-Dimethylphenyl)-4-(2-pyridinyl)-2-pyrimidinamine, sulfate] | – | IC50 (Homo sapiens): 600 nM |
| CN(C)c1ccc(Nc2nccc(-c3ccsc3)n2)cc1 [N,N-Dimethyl-N'-[4-(3-thienyl)-2-pyrimidinyl]-1,4-benzenediamine] | 2100 | – |
| CCc1ccc(Nc2nccc(-c3cc(C)oc3C)n2)cc1 [4-(2,5-Dimethyl-3-furanyl)-N-(4-ethylphenyl)-2-pyrimidinamine] | 19200 | – |
| CC(=O)N(C)c1ccc(Nc2nccc(-c3cccnc3)n2)cc1 [N-Methyl-N-[4-[[4-(3-pyridinyl)-2-pyrimidinyl]amino]phenyl]acetamide] | 1100 | – |
| CN1CCN(c2ccc(Nc3nccc(-c4cccs4)n3)cc2)CC1 [N-[4-(4-Methyl-1-piperazinyl)phenyl]-4-(2-thienyl)-2-pyrimidinamine] | < 24000 | – |
| c1ccc(Nc2nccc(-c3ccncc3)n2)cc1 [N-Phenyl-4-(4-pyridinyl)-2-pyrimidinamine, dinitrate] | – | IC50 (dinitrate): 1200 nM |
| CN(C)c1cccc(Nc2nccc(-c3ccccn3)n2)c1 [N,N-Dimethyl-N'-[4-(2-pyridinyl)-2-pyriziiidin-yl]-1,3-benzenediamine, trihydrochloride] | – | IC50 [1]: 1000 nM |
| CN(C)c1ccc(Nc2nccc(-c3ccncc3)n2)cc1 [N-[4-(Dimethylamino)phenyl]-4-(4-pyridinyl)-2-pyrimidinamine] | – | IC50 (read-out: IC50): 3800 nM |
| Cc1ccc(Nc2nccc(-c3ccccn3)n2)cc1C [N-(3,4-Dimethylphenyl)-4-(2-pyridinyl)-2-pyrimidinamine] | 5900 | – |
| Nc1ccc(Nc2nccc(-c3ccccn3)n2)cc1 [N-[4-(2-Pyridinyl)-2-pyrimidinyl]-1,4-benzenediamine, dihydrochloride] | 1000 | – |
| Nc1cccc(Nc2nccc(-c3ccccn3)n2)c1 [N-[4-(2-Pyridinyl)-2-pyrimidinyl]-1,3-benzenediamine] | 200 | – |
| Cc1cccc(Nc2nccc(-c3ccnc4ccccc34)n2)c1 [N-(3-Methylphenyl)-4-(4-quinolinyl)-2-pyrimidinamine] | 10900 | – |
| Cc1cccc(Nc2nccc(-c3ccco3)n2)c1 [4-(2-Furanyl)-N-[3-(methylphenyl)]-2-pyrimidinamine, sulfate] | – | IC50 (read-out: IC50): 3000 nM |
| COc1cccc(Nc2nccc(-c3ccco3)n2)c1 [4-(2-Furanyl)-N-(3-methoxyphenyl)-2-pyrimidinamine] | 300 | – |
| Cc1cccc(Nc2nccc(-c3cccn3C)n2)c1 [N-(3-Methylphenyl)-4-(1-methyl-1H-pyrrol-2-yl)-2-pyrimidinamine] | 9400 | – |
| Cc1cc(C)cc(Nc2nccc(-c3cccnc3)n2)c1 [N-(3,5-Dimethylphenyl)-4-(3-pyridinyl)-2-pyrimidinamine] | – | IC50 (read-out: IC50): 800 nM |
